Columns and labels:
[1] = biological target: T1, UPPS (Undecaprenyl Pyrophosphate Synthase) (Bacteroides fragilis, UniProt Q5LI17); assay: RP-HPLC with fluorescence detection; type: biochemical; details: IPP 0.2 mM, MgCl2 0.5 mM, KCl 5 mM, 0.1% DDM, HEPES pH 7.4, 37 °C, 1 h
T1 sequence (Q5LI17 1-244): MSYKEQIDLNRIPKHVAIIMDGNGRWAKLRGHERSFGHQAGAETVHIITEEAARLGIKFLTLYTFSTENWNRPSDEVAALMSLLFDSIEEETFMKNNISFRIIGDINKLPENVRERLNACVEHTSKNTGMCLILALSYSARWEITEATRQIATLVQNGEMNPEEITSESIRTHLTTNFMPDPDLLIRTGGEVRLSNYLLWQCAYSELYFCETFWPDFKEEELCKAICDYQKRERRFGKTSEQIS

[2] = biological target: T1, UPPS (Undecaprenyl Pyrophosphate Synthase); assay: RP-HPLC with fluorescence detection, TLC, ESI-MS, 1H-NMR of product; type: biochemical; details: IPP 0.2 mM, MgCl2 0.5 mM, KCl 5 mM, 0.1% DDM, HEPES pH 7.4, 37 °C

Row | SMILES | RP-HPLC with fluorescence detection [1] | RP-HPLC with fluorescence detection, TLC, ESI-MS, 1H-NMR of product [2]
1 | C/C(=C/COP(=O)(O)OP(=O)(O)O)CC/C=C(\C)CNc1ccccc1C(N)=O [6a, (6Z)-8-(2-amideaniline)-3,7-dimethyl-2,6-octadiene diphosphate] | we observed identical activity with 2AB-N-PP | 
2 | C/C(=C\COP(=O)(O)OP(=O)(O)O)CC/C=C(\C)CNc1ccccc1C(N)=O [6b, (6E)-8-(2-amideaniline)-3,7-dimethyl-2,6-octadiene diphosphate] |  | these results confirmed the formation of the long chain isoprenoid with 2AB-G-PP as the UPPS substrate
